Assay [1] has as its system IL-1β-induced corneal HA and LA. In words: Corneal micropocket assay with IL-1β pellets (vessel density). The following applies: IL-1β micropellet, day 7. It is filed as in vivo, mice. As to the method: (§1) FIG. 6. ATLa Regulate IL-1β- and VEGF-A-induced Corneal HA and LA. Hydron pellets containing IL-1β or VEGF-A were implanted into the corneas on day 0. ATLa or vehicle was subconjunctivally injected every 48 h from 0 to 7 days after pellet implantation (4 corneas per treatment, for each pellet-type). A. Slit-lamp examination was performed on day 7 and representative images are shown. B. The density of blood vessels (CD31^high/LYVE-1^−) or lymphatic vessels (CD31^lowLYVE-1^high) covering each cornea was analyzed. Values are expressed as the mean (±SEM) of each treatment group (4 corneas per group) and the data are representative of two independent experiments (*P<0.05 vs vehicle-treated group, t-test).
(§2) The corneal micropocket assay in mice and quantification of the resultant NV has been described previously.^16,17 In brief, 0.3 μl of hydron pellets (IFN Sciences, New Brunswick, N.J.) containing 30 ng of murine IL-1β (R&D Systems, Minneapolis, Minn.) or 200 ng of VEGF-A (gift from BRB Preclinical Repository, National Cancer Institute) were prepared and implanted into the corneal stroma of male BALB/c mice. After 7 days the animals were sacrificed and the corneas were harvested for quantitative analysis of HA and LA.
(§3) BALB/c mice were randomized to receive ATLa, or vehicle (normal saline) by subconjunctival injection in a masked fashion after suture or hydron pellet placement. […]

Assay [2] relates to VEGF-A-induced corneal HA and LA. Nature of the assay: Corneal micropocket assay with VEGF-A pellets (vessel density). It is filed as in vivo, mice. The following applies: VEGF-A micropellet, day 7. How it is done: as §1, §2, §3

Each structure is given as a SMILES string.

Turning to `COC(=O)CCC[C@H](O)[C@H](O)/C=C/C=C/C=C\C=C\[C@H](O)COc1ccc(F)cc1` [ATLa, 15-epi-16-(para-fluoro)-phenoxy-lipoxin A4 methyl ester], the BV density in assay [1] (n=4, mean±SEM) worked out at 16.1±3.0%; in assay [2] (n=4, mean±SEM), 5.9±0.4%. Moreover, the “LA stimulated by IL-1β” value in assay [1] (vs vehicle) is reported as “no significant reduction”. In addition, in assay [2] (vs vehicle), the “LA stimulated by VEGF-A” value is “no significant reduction”.

(Values after patent publication US20100105772A1, “USE OF NOVEL LIPID MEDIATORS TO INHIBIT ANGIOGENESIS” (priority 2008, published 2010).)
